In brackets after ≈: the same amount, converted by molar mass.

Usually Papp stands for the rate of passage across a membrane or cell layer, normalised by area and donor concentration. The low end stands for poor permeation, the high end for ready permeation. Broadly, the kinetic solubility is the concentration staying in solution when a stock, usually in DMSO, is diluted into the medium. By microsomal CLint is commonly meant a measure of how fast metabolising enzymes remove a compound, apart from limits set by blood flow. Low readings indicate slow turnover, high ones rapid turnover. What is called logD is lipophilicity at a set pH, counting ionised and neutral species. A lower logD goes with lower lipophilicity.

For series [1] the following is noted: mdck_mdr1.
For series [2] the following is noted: human; liver_microsomes.
Assay in series [3]: not given
This is another data set of the same source.

For series [4] the following is noted: mouse; liver_microsomes.

For the compound `CC(C)(C)[C@H](Nc1ncnc2[nH]c(-c3cnn(CC(N)=O)c3)cc12)c1ccc2c(n1)OCCO2` (racemic), the kinetic solubility is 48 µM (≈ 22.2 µg/mL). The compound further showed a Papp in series [1] of 0.822 ×10⁻⁶ cm/s. The same compound returned a microsomal CLint in series [2] of 36 µL/min/mg. The compound further came in with a logD in series [3] of 2.7. The microsomal CLint in series [4] was 31 µL/min/mg.

In the case of `CC(C)[C@H](Nc1ncnc2[nH]c(-c3ccc4cncn4c3)cc12)c1ccc2c(c1)S(=O)(=O)CCC2` (racemic), the kinetic solubility is 14 µM (≈ 6.81 µg/mL). The Papp in series [1] turned out to be 0.56 ×10⁻⁶ cm/s. The microsomal CLint in series [2] turned out to be 210 µL/min/mg. In series [3], this compound yielded a logD of 4. Besides, the microsomal CLint in series [4] turned out to be 170 µL/min/mg.

With `CC(C)[C@H](Nc1ncnc2[nH]c(-c3ccc4nnn(C)c4c3)cc12)c1ccc2c(c1)S(=O)(=O)CCC2` (racemic), the solubility (kinetic) worked out at 6 µM (≈ 3.01 µg/mL). The same compound showed a Papp in series [1] of 0.827 ×10⁻⁶ cm/s. Further, the microsomal CLint in series [2] stood at 752 µL/min/mg. The compound also gave a logD in series [3] of 3.4. The microsomal CLint in series [4] was 219 µL/min/mg.

Compound `CC(C)[C@H](Nc1ncnc2[nH]c(-c3cnn(C)c3)cc12)c1ccc2c(c1)S(=O)(=O)CCC2` (racemic) came in with a solubility (kinetic) of 94 µM (≈ 42.4 µg/mL). The same compound gave a Papp in series [1] of 1.73 ×10⁻⁶ cm/s. The compound also had a microsomal CLint in series [2] of 141 µL/min/mg. In series [3], the logD turned out to be 3.3. In series [4], this compound registered a microsomal CLint of 155 µL/min/mg.

Compound `CC(C)[C@H](Nc1ncnc2[nH]c(-c3cnn(C)c3)cc12)c1ccc2c(c1)S(=O)(=O)NCC2` (racemic) had a solubility (kinetic) of 105 µM (≈ 47.4 µg/mL). This compound came in with a Papp in series [1] of 1.58 ×10⁻⁶ cm/s. In series [2], this compound had a microsomal CLint of 120 µL/min/mg. The logD in series [3] amounted to 3.2. Besides, in series [4], the intrinsic metabolic clearance (microsomal CLint) was 87 µL/min/mg.

The compound `CC(C)[C@H](Nc1ncnc2[nH]c(-c3cnn(C)c3C#N)cc12)c1ccc2c(c1)S(=O)(=O)CCC2` (racemic) yielded a kinetic solubility of 34 µM (≈ 16.2 µg/mL). In series [1], this compound showed a Papp of 1.97 ×10⁻⁶ cm/s. In addition, the microsomal CLint in series [2] came to 490 µL/min/mg. The logD in series [3] amounted to 3.6. For the same compound, the microsomal CLint in series [4] stood at 440 µL/min/mg.

In turn, `CC(C)[C@H](Nc1ncnc2[nH]c(-c3cnn(C)c3C#N)cc12)c1ccc2c(n1)NC(=O)CO2` (racemic) displayed a kinetic solubility of 29 µM (≈ 12.9 µg/mL). This compound also had a Papp in series [1] of 9.83 ×10⁻⁶ cm/s. The compound further gave a microsomal CLint in series [2] of 70 µL/min/mg. The compound also returned a logD in series [3] of 3.7. Also, in series [4], the microsomal CLint was 145 µL/min/mg.

Regarding `CC(C)[C@H](Nc1ncnc2[nH]c(-c3cnn(CC(=O)N(C)C)c3)cc12)c1ccc2c(c1)S(=O)(=O)CCC2` (racemic), the solubility (kinetic) worked out at 38 µM (≈ 19.8 µg/mL). In series [1], this compound registered a Papp of 0.67 ×10⁻⁶ cm/s. In series [2], the microsomal CLint turned out to be 106 µL/min/mg. The same compound registered a logD in series [3] of 2.1. Besides, the microsomal CLint in series [4] worked out at 68 µL/min/mg.

Turning to `CC(C)[C@H](Nc1ncnc2[nH]c(-c3cnn(CC(N)=O)c3)cc12)c1ccc2c(c1)S(=O)(=O)CCC2` (racemic), the kinetic solubility amounted to 341 µM (≈ 168 µg/mL). The Papp in series [1] stood at 0.32 ×10⁻⁶ cm/s. In series [2], this compound showed a microsomal CLint of 116 µL/min/mg. In series [3], this compound registered a logD of 1.9. This compound registered a microsomal CLint in series [4] of 61 µL/min/mg.

Compound `CC(C)[C@H](Nc1ncnc2[nH]c(-c3cnn(CC(N)=O)c3)cc12)c1ccc2c(n1)OCCO2` (racemic) registered a solubility (kinetic) of 385 µM (≈ 173 µg/mL). The compound further registered a Papp in series [1] of 2.46 ×10⁻⁶ cm/s. The same compound yielded a microsomal CLint in series [2] of 14 µL/min/mg. In series [3], this compound yielded a logD of 2.4. The compound also gave a microsomal CLint in series [4] of 12 µL/min/mg.

`CC(C)[C@H](Nc1ncnc2[nH]cc(C(=O)NC3CC3)c12)c1ccc2c(c1)S(=O)(=O)CCC2` (racemic) had a kinetic solubility of 257 µM (≈ 117 µg/mL). This compound also showed a Papp in series [1] of 2.46 ×10⁻⁶ cm/s. Moreover, in series [2], the microsomal CLint is 29 µL/min/mg. The same compound showed a logD in series [3] of 3.1. The compound also yielded a microsomal CLint in series [4] of 234 µL/min/mg.

`CC(C)[C@H](Nc1ncnc2[nH]ccc12)c1ccc2c(c1)S(=O)(=O)CCO2` (racemic) yielded a kinetic solubility of 372 µM (≈ 139 µg/mL). In series [1], this compound showed a Papp of 4.4 ×10⁻⁶ cm/s. The same compound returned a microsomal CLint in series [2] of 18 µL/min/mg. Besides, the logD in series [3] is 2.6. The compound further yielded a microsomal CLint in series [4] of 69 µL/min/mg.

`CCNC(=O)c1cc2c(N[C@H](c3ccc4c(c3)S(=O)(=O)CCC4)C(C)C)ncnc2[nH]1` (racemic) showed a kinetic solubility of 336 µM (≈ 148 µg/mL). Besides, the apparent permeability coefficient (Papp) in series [1] came to 0.7 ×10⁻⁶ cm/s. The microsomal CLint in series [2] was 108 µL/min/mg. In series [3], the logD came to 2.8. In series [4], this compound yielded a microsomal CLint of 85 µL/min/mg.

`CCNC(=O)c1cc2c(N[C@H](c3ccc4c(c3)S(=O)(=O)CCO4)C(C)C)ncnc2[nH]1` (racemic) showed a solubility (kinetic) of 328 µM (≈ 145 µg/mL). The same compound gave a Papp in series [1] of 0.471 ×10⁻⁶ cm/s. Besides, the microsomal CLint in series [2] came out at 64 µL/min/mg. In series [3], this compound displayed a logD of 2.9. In series [4], this compound yielded a microsomal CLint of 26 µL/min/mg.

Consider `CCNC(=O)c1cc2c(N[C@H](c3ccc4c(c3)S(=O)(=O)NCC4)C(C)C)ncnc2[nH]1` (racemic), for which the kinetic solubility was determined as 344 µM (≈ 152 µg/mL). In series [1], this compound displayed a Papp of 1.96 ×10⁻⁶ cm/s. The same compound gave a microsomal CLint in series [2] of 85 µL/min/mg. This compound also yielded a logD in series [3] of 2.6. Further, the microsomal CLint in series [4] turned out to be 45 µL/min/mg.

`CNC(=O)Cn1cc(-c2cc3c(N[C@H](c4ccc5c(c4)S(=O)(=O)CCC5)C(C)C)ncnc3[nH]2)cn1` (racemic) came in with a solubility (kinetic) of 306 µM (≈ 155 µg/mL). The same compound showed a Papp in series [1] of 0.47 ×10⁻⁶ cm/s. Moreover, in series [2], the microsomal CLint was 94 µL/min/mg. Moreover, the logD in series [3] is 2.4. Also, the microsomal CLint in series [4] stood at 77 µL/min/mg.

Regarding `CNC(=O)c1c[nH]c2ncnc(N[C@H](c3ccc4c(c3)NC(=O)CO4)C(C)C)c12` (racemic), the solubility (kinetic) was found to be 28 µM (≈ 11 µg/mL). This compound also registered a Papp in series [1] of 4.26 ×10⁻⁶ cm/s. Also, the microsomal CLint in series [2] is 86 µL/min/mg. The compound further gave a logD in series [3] of 3.2. In series [4], this compound had a microsomal CLint of 113 µL/min/mg.

On to `CNC(=O)c1c[nH]c2ncnc(N[C@H](c3ccc4c(c3)S(=O)(=O)CCC4)C(C)C)c12` (racemic), for which the solubility (kinetic) came out at 390 µM (≈ 167 µg/mL). This compound gave a Papp in series [1] of 2.23 ×10⁻⁶ cm/s. The microsomal CLint in series [2] is 131 µL/min/mg. In addition, the logD in series [3] was determined as 2.5. In addition, in series [4], the microsomal CLint was determined as 192 µL/min/mg.

With `CNC(=O)c1cc2c(N[C@H](c3ccc4c(c3)S(=O)(=O)CCC4)C(C)C)ncnc2[nH]1` (racemic), the solubility (kinetic) was determined as 369 µM (≈ 158 µg/mL). Also, the Papp in series [1] amounted to 0.46 ×10⁻⁶ cm/s. The compound further gave a microsomal CLint in series [2] of 77 µL/min/mg. The logD in series [3] was found to be 2.4. Moreover, the microsomal CLint in series [4] was determined as 46 µL/min/mg.

Turning to `CNCc1cc(-c2cc3c(N[C@H](c4ccc5c(c4)S(=O)(=O)CCC5)C(C)C)ncnc3[nH]2)co1` (racemic), the solubility (kinetic) was 321 µM (≈ 154 µg/mL). Further, the apparent permeability (Papp) in series [1] was determined as 1.61 ×10⁻⁶ cm/s. Also, the intrinsic metabolic clearance (microsomal CLint) in series [2] stood at 57 µL/min/mg. In addition, the logD in series [3] was 2.1. The microsomal CLint in series [4] was found to be 52 µL/min/mg.

Take `CNCc1cc(-c2cc3c(N[C@H](c4ccc5c(c4)S(=O)(=O)NCC5)C(C)C)ncnc3[nH]2)co1` (racemic): the solubility (kinetic) is 372 µM (≈ 179 µg/mL). The Papp in series [1] amounted to 1.2 ×10⁻⁶ cm/s. Further, the microsomal CLint in series [2] came out at 46 µL/min/mg. Further, the logD in series [3] was found to be 1.9. The compound further displayed a microsomal CLint in series [4] of 42 µL/min/mg.

Regarding `COCCNC(=O)c1c[nH]c2ncnc(N[C@H](c3ccc4c(c3)S(=O)(=O)CCC4)C(C)C)c12` (racemic), the kinetic solubility amounted to 378 µM (≈ 178 µg/mL). This compound also had a Papp in series [1] of 1.62 ×10⁻⁶ cm/s. In series [2], this compound registered a microsomal CLint of 540 µL/min/mg. Besides, the logD in series [3] came to 2.8. The same compound returned a microsomal CLint in series [4] of 888 µL/min/mg.

Consider `Cn1ncc(-c2cc3c(N[C@H](c4ccc5c(n4)OCCO5)C(C)(C)C)ncnc3[nH]2)c1C#N` (racemic), for which the solubility (kinetic) is 24 µM (≈ 10.7 µg/mL). The compound also gave a Papp in series [1] of 13.5 ×10⁻⁶ cm/s. In series [2], this compound came in with a microsomal CLint of 81 µL/min/mg. Also, the logD in series [3] came out at 2.7. In series [4], this compound returned a microsomal CLint of 209 µL/min/mg.

The values are drawn from the ASAP Discovery antiviral challenge data (2025).
